Experimental data: ChEMBL document CHEMBL5584328, “Integrating computational and experimental chemical biology revealed variable anticancer activities of phosphodiesterase isoenzyme 5 inhibitors (PDE5i) in lung cancer” (RSC Med Chem, 2024)
pIC50: −log10 of the molar value. Activity calls are given as the source filed them. The rule behind the calls is not given here.

How the values were obtained:
A549 [1] = assay: Potentiation of cisplatin-induced cytotoxicity against human A549 cells assessed as combination index at 1:5 ratio of cisplatin to compound measured after 48 hrs by MTT assay; type: functional
A549 [2] = assay: Inhibition of colony formation in human A549 cells assessed as reduction in size of colonies at 64 to 128 uM measured after 48 hrs by colony formation assay; type: functional, cell-based; settings: dose 64-128 µM
A549 [3] = assay: Inhibition of colony formation in human A549 cells assessed as reduction in number of colonies at 64 to 128 uM measured after 48 hrs by colony formation assay; type: functional, cell-based; settings: dose 64-128 µM
A549 [4] = assay: Reduction in Bcl-2 gene expression in human A549 cells at 0.1 IC50 measured after 48 hrs by qRT-PCR analysis; type: functional, cell-based
NCI-H1299 [5] = assay: Potentiation of cisplatin-induced cytotoxicity against human NCI-H1299 cells assessed as fold reduction in cisplatin IC50 at 1:4 ratio of cisplatin to compound measured after 48 hrs by MTT assay relative to cisplatin alone; type: functional
A549 [6] = assay: Induction of apoptosis in human A549 cells assessed as increase in apoptotic cells at 256 uM measured after 48 hrs by Annexin V-FITC/PI staining based flow cytometry relative to control; type: functional
NCI-H661 [7] = assay: Antiproliferative activity against human NCI-H661 cells measured after 72 hrs by MTT assay; type: functional, cell-based
NCI-H661 [8] = assay: Potentiation of cisplatin-induced cytotoxicity against human NCI-H661 cells assessed as combination index at 1:4 ratio of cisplatin to compound measured after 48 hrs by MTT assay; type: functional
NCI-H1299 [9] = assay: Antiproliferative activity against human NCI-H1299 cells measured after 24 hrs by MTT assay; type: functional, cell-based
NCI-H1299 [10] = assay: Antiproliferative activity against human NCI-H1299 cells by MTT assay; type: functional, cell-based; settings: time 24-72 hrs, TDE = time-dependent effect
NCI-H661 [11] = assay: Antiproliferative activity against human NCI-H661 cells measured after 24 hrs by MTT assay; type: functional, cell-based
A549 [12] = assay: Reduction in PDE5 protein expression in human A549 cells at 0.25 to 0.5 IC50 measured after 48 hrs by Western blot analysis; type: functional, cell-based
A549 [13] = assay: Potentiation of raloxifene-induced cytotoxicity against human A549 cells assessed as fold reduction in raloxifene IC50 at 1:3 ratio of raloxifene to compound measured after 48 hrs by MTT assay relative to raloxifene alone; type: functional
NCI-H1299 [14] = assay: Potentiation of raloxifene-induced cytotoxicity against human NCI-H1299 cells assessed as fold reduction in raloxifene IC50 at 1:2 ratio of raloxifene to compound measured after 48 hrs by MTT assay relative to raloxifene alone; type: functional
NCI-H661 [15] = assay: Potentiation of cisplatin-induced cytotoxicity against human NCI-H661 cells assessed as fold reduction in cisplatin IC50 at 1:4 ratio of cisplatin to compound measured after 48 hrs by MTT assay relative to cisplatin alone; type: functional
A549 [16] = assay: Potentiation of cisplatin-induced cytotoxicity against human A549 cells assessed as fold reduction in cisplatin IC50 at 1:5 ratio of cisplatin to compound measured after 48 hrs by MTT assay relative to cisplatin alone; type: functional
NCI-H1299 [17] = assay: Potentiation of raloxifene-induced cytotoxicity against human NCI-H1299 cells assessed as combination index at 1:2 ratio of raloxifene to compound measured after 48 hrs by MTT assay; type: functional
NCI-H1299 [18] = assay: Antimigratory activity against human NCI-H1299 cells assessed as reduction in wound closure measured after 24 hrs by wound healing assay; type: functional, cell-based
NCI-H661 [19] = assay: Potentiation of raloxifene-induced cytotoxicity against human NCI-H661 cells assessed as fold reduction in raloxifene IC50 at 1:2 ratio of raloxifene to compound measured after 48 hrs by MTT assay relative to raloxifene alone; type: functional
NCI-H661 [20] = assay: Antiproliferative activity against human NCI-H661 cells by MTT assay; type: functional, cell-based; settings: time 24-72 hrs, TDE = time-dependent effect
NCI-H661 [21] = assay: Potentiation of raloxifene-induced cytotoxicity against human NCI-H661 cells assessed as combination index at 1:2 ratio of raloxifene to compound measured after 48 hrs by MTT assay; type: functional
A549 [22] = assay: Antiproliferative activity against human A549 cells by MTT assay; type: functional, cell-based; settings: time 24-72 hrs, TDE = time-dependent effect
A549 [23] = assay: Potentiation of raloxifene-induced cytotoxicity against human A549 cells assessed as combination index at 1:3 ratio of raloxifene to compound measured after 48 hrs by MTT assay; type: functional
NCI-H1299 [24] = assay: Antiproliferative activity against human NCI-H1299 cells measured after 48 hrs by MTT assay; type: functional, cell-based
A549 [25] = assay: Antiproliferative activity against human A549 cells measured after 48 hrs by MTT assay; type: functional, cell-based
NCI-H1299 [26] = assay: Antiproliferative activity against human NCI-H1299 cells measured after 72 hrs by MTT assay; type: functional, cell-based
A549 [27] = assay: Antiproliferative activity against human A549 cells measured after 24 hrs by MTT assay; type: functional, cell-based
A549 [28] = assay: Cell cycle arrest in human A549 cells assessed as increase in cell population at G2 phase at 64 uM measured after 48 hrs by propidium iodide staining based flow cytometry; type: functional
A549 [29] = assay: Reduction in PDE5 gene expression in human A549 cells at 0.1 IC50 measured after 48 hrs by qRT-PCR analysis; type: functional, cell-based
A549 [30] = assay: Antiproliferative activity against human A549 cells measured after 72 hrs by MTT assay; type: functional, cell-based
NCI-H1299 [31] = assay: Potentiation of cisplatin-induced cytotoxicity against human NCI-H1299 cells assessed as combination index at 1:4 ratio of cisplatin to compound measured after 48 hrs by MTT assay; type: functional
NCI-H661 [32] = assay: Antiproliferative activity against human NCI-H661 cells measured after 48 hrs by MTT assay; type: functional, cell-based

Question: Which results are given for `CCCOc1ccc(S(=O)(=O)NCCC2CCCN2C)cc1-c1nc2c(CCC)nn(C)c2c(=O)[nH]1` (stereo unspecified) [UDENAFIL]?
Answer: CI (A549 [1]): 0.95; inhibition (A549 [2]): Active; inhibition (A549 [3]): Active; Activity (A549 [4]): Active; fold change (FC) (NCI-H1299 [5]): 2.4; Activity (A549 [6]): 55.9%; Activity (NCI-H661 [7]): Dose-Dependent Effect; pIC50 (NCI-H661 [7]; NCI-H661, 72 h): 4.01; CI (NCI-H661 [8]): 0.83; Activity (NCI-H1299 [9]): Dose-Dependent Effect; pIC50 (NCI-H1299 [9]; NCI-H1299, 24 h): 4.12; Activity (NCI-H1299 [10]): Tde; Activity (NCI-H661 [11]): Dose-Dependent Effect; pIC50 (NCI-H661 [11]; NCI-H661, 24 h): 3.75; Activity (A549 [12]): Dose-Dependent Effect; fold change (FC) (A549 [13]): 1.6; fold change (FC) (NCI-H1299 [14]): 2.4; fold change (FC) (NCI-H661 [15]): 2.1; fold change (FC) (A549 [16]): 1.7; CI (NCI-H1299 [17]): 0.88; Activity (NCI-H1299 [18]): Dose-Dependent Effect; fold change (FC) (NCI-H661 [19]): 2.3; Activity (NCI-H661 [20]): Tde; CI (NCI-H661 [21]): 0.8; Activity (A549 [22]): Tde; CI (A549 [23]): 0.98; Activity (NCI-H1299 [24]): Dose-Dependent Effect; pIC50 (NCI-H1299 [24]; NCI-H1299, 48 h): 4.06; Activity (A549 [25]): Dose-Dependent Effect; pIC50 (A549 [25]; A549, 48 h): 3.89; Activity (NCI-H1299 [26]): Dose-Dependent Effect; pIC50 (NCI-H1299 [26]; NCI-H1299, 72 h): 4.15; Activity (A549 [27]): Dose-Dependent Effect; pIC50 (A549 [27]; A549, 24 h): 3.82; Activity (A549 [28]): Active; Activity (A549 [29]): Active; Activity (A549 [30]): Dose-Dependent Effect; pIC50 (A549 [30]; A549, 72 h): 4.08; CI (NCI-H1299 [31]): 0.82; Activity (NCI-H661 [32]): Dose-Dependent Effect; pIC50 (NCI-H661 [32]; NCI-H661, 48 h): 4.10
